IC50 data for 37 molecules are collected here from BindingDB's records for doi:10.7270/Q2DN43N5 (Burnham Center For Chemical Genomics, 2013).

Structures can show the parent of a compound that is named as a salt.

For this assay, the target named is T1, Tyrosine-protein phosphatase non-receptor type 22 (Homo sapiens, UniProt Q9Y2R2).
T1 sequence (Q9Y2R2 whole entry): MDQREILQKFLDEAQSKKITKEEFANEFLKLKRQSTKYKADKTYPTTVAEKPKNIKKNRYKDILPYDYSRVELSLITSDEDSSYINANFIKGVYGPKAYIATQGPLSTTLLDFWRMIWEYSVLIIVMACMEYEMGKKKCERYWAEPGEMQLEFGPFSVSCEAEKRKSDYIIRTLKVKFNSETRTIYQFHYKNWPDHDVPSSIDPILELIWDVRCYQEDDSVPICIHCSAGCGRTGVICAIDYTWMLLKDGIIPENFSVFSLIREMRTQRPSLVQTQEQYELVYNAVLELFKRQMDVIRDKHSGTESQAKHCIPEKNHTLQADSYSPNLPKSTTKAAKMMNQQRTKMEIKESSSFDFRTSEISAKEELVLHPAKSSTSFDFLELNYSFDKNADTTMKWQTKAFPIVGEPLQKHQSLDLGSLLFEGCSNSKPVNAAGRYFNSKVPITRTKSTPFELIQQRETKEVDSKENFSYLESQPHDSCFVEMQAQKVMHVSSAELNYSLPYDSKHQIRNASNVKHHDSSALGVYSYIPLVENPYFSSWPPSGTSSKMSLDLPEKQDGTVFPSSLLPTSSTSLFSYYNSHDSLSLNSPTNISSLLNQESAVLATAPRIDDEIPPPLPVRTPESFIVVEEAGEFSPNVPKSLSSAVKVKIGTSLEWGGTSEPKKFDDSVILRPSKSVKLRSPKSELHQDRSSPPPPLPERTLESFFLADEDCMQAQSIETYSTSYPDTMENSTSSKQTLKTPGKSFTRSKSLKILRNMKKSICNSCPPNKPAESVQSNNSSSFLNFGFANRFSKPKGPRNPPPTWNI

As usually defined, the IC50 is the concentration needed to halve the response being measured. The low end stands for greater potency, the high end for weaker potency. `CCc1nc(N)nc(N)c1-c1ccc(Cl)cc1` had a 50% inhibitory concentration (IC50) greater than 80 µM.

`c1ccc(-c2nc(NCc3cccnc3)c3ccccc3n2)cc1` registered a concentration for half-maximal inhibition (IC50) greater than 80 µM.

In the case of `CCc1nc(N)nc(N)c1-c1ccc(NCCN)c([N+](=O)[O-])c1`, the IC50 is greater than 80 µM.

The molecule `CN(C)c1nc(N)nc(/C(C#N)=C/C2CC3C=CC2C3)n1` (configuration not stated) returned an IC50 greater than 80 µM.

The molecule `Cc1ccccc1Nc1cc(C)c2c(=O)cccc-2[nH]1` gave an IC50 greater than 80 µM.

In the case of `Cc1nccc(O)c1Cc1c(Cl)cccc1Cl`, the IC50 was greater than 80 µM.

As for `Cc1cccc(-c2nc(NCCCN3CCOCC3)c3ccccc3n2)c1`, the 50% inhibitory concentration (IC50) was greater than 80 µM.

The molecule `Fc1ccccc1-c1nc(NCCCN2CCOCC2)c2ccccc2n1` [2-(2-fluorophenyl)-N-(3-morpholin-4-ylpropyl)quinazolin-4-amine] displayed a concentration for half-maximal inhibition (IC50) greater than 80 µM.

Take `COc1ccc(/N=c2\[nH]c(=O)c3cc([N+](=O)[O-])ccc3s2)cc1` [2-(4-methoxyanilino)-6-nitro-1,3-benzothiazin-4-one]: the half-maximal inhibitory concentration (IC50) was greater than 80 µM.

Regarding `COc1ccccc1CNc1nc(NCc2cnc(C)cn2)c2sccc2n1` [2-N-[(2-methoxyphenyl)methyl]-4-N-[(5-methylpyrazin-2-yl)methyl]thieno[3,2-d]pyrimidine-2,4-diamine], the half-inhibitory concentration (IC50) is greater than 80 µM.

Take `CCOc1cc(CN=Nc2nc(O)c(CC(=O)O)s2)ccc1OCc1ccc(Cl)cc1Cl` [2-[2-[(N''E)-N''-[4-(2,4-dichlorobenzyl)oxy-3-ethoxy-benzylidene]hydrazino]-4-keto-2-thiazolin-5-yl]acetic acid]: 22.9 µM corresponded to half-maximal inhibition (IC50).

The molecule `O=C(OCCNc1nc(-c2ccccc2)nc2ccccc12)c1ccncc1` [2-[(2-phenylquinazolin-4-yl)amino]ethyl pyridine-4-carboxylate] displayed an IC50 greater than 80 µM.

`Cc1ccc(-c2nc(NC(=O)CSc3cc(C)c4ccccc4n3)ns2)cc1` [2-[(4-methyl-2-quinolyl)thio]-N-[5-(p-tolyl)-1,2,4-thiadiazol-3-yl]acetamide] had a concentration for half-maximal inhibition (IC50) greater than 80 µM.

Consider `N=c1c(C(=O)NCc2ccc3c(c2)OCO3)cc2c(=O)n3ccccc3nc2n1Cc1cccnc1` [2-azanylidene-N-(1,3-benzodioxol-5-ylmethyl)-5-oxidanylidene-1-(pyridin-3-ylmethyl)dipyrido[1,2-d:3',4'-f]pyrimidine-3-carboxamide], for which the concentration for half-maximal inhibition (IC50) was greater than 80 µM.

`c1ccc(-c2cc(N3CCCCC3)c3ccccc3n2)cc1` [2-phenyl-4-piperidin-1-ylquinoline] came in with an IC50 greater than 80 µM.

With `CC(C)OCCCNc1nc(-c2ccccc2)nc2ccccc12` [2-phenyl-N-(3-propan-2-yloxypropyl)-4-quinazolinamine;hydrochloride], the IC50 is greater than 80 µM.

With `Cc1c(CCC(=O)O)c(=O)oc2c(C)c(OCc3ccccc3Cl)ccc12` [3-[7-[(2-chlorophenyl)methoxy]-4,8-dimethyl-2-oxochromen-3-yl]propanoic acid], the half-maximal inhibitory concentration (IC50) was greater than 80 µM.

As to `CCN(c1ccccc1)S(=O)(=O)c1cc(C(=O)O)ccc1C` [3-[ethyl(phenyl)sulfamoyl]-4-methyl-benzoic acid], the half-inhibitory concentration (IC50) is greater than 80 µM.

Consider `O=C(OCCNc1nc(-c2ccccc2)nc2ccccc12)c1cccnc1` [3-pyridinecarboxylic acid 2-[(2-phenyl-4-quinazolinyl)amino]ethyl ester], for which the IC50 is greater than 80 µM.

Consider `CNc1nc(NC)c2c[nH]nc2n1` [4-N,6-N-dimethyl-1H-pyrazolo[3,4-d]pyrimidine-4,6-diamine], for which the IC50 is greater than 80 µM.

Turning to `COCCNc1nc(NCc2cccc(OC)c2OC)c2sccc2n1` [4-N-[(2,3-dimethoxyphenyl)methyl]-2-N-(2-methoxyethyl)thieno[3,2-d]pyrimidine-2,4-diamine], the IC50 was greater than 80 µM.

Take `Cc1cc(N2CCC(C)CC2)[nH]c2cccc(=O)c1-2` [4-methyl-2-(4-methyl-1-piperidinyl)-1H-quinolin-5-one]: the IC50 was greater than 80 µM.

Take `CCc1nc(N)nc(N)c1-c1ccc(Cl)c(N=[N+]=[N-])c1` [5-(3-azido-4-chlorophenyl)-6-ethylpyrimidine-2,4-diamine;ethanesulfonic acid]: the IC50 was greater than 80 µM.

Take `Cc1nc(N)nc(N)c1-c1ccc([N+](=O)[O-])cc1` [6-methyl-5-(4-nitrophenyl)pyrimidine-2,4-diamine]: the IC50 was greater than 80 µM.

Turning to `Cc1cccc2nc(-c3ccccc3)nc(N[C@@H](CO)c3ccccc3)c12` [(2R)-2-[(5-methyl-2-phenylquinazolin-4-yl)amino]-2-phenylethanol], the concentration for half-maximal inhibition (IC50) was greater than 80 µM.

Molecule `Nc1nc(N)c(Cc2ccc(Cl)cc2Cl)c(N)n1` [MLS000691890] displayed an IC50 greater than 80 µM.

The molecule `c1ccc(-c2nc(NCCCn3ccnc3)c3ccccc3n2)cc1` [MLS001007021] displayed an IC50 greater than 80 µM.

With `O=c1cc(-c2cc3ccccc3o2)c2cc(O)ccc2o1` [MLS001167639], the IC50 was greater than 80 µM.

`CCCCC(=O)Nc1ccc(C(=O)NNC(=O)c2ccc(C)c(Br)c2)cc1` [N-(4-{[2-(3-bromo-4-methylbenzoyl)hydrazino]carbonyl}phenyl)pentanamide]: the IC50 was greater than 80 µM.

Molecule `O=C(CCCOc1ccc(Cl)cc1Cl)NNC(=O)c1ccc(NC(=O)c2ccccc2)cc1` [N-[4-[[4-[2,4-bis(chloranyl)phenoxy]butanoylamino]carbamoyl]phenyl]benzamide] gave an IC50 greater than 80 µM.

As to `Fc1ccccc1-c1nc(NC2CCCC2)c2ccccc2n1` [N-cyclopentyl-2-(2-fluorophenyl)quinazolin-4-amine], the IC50 was greater than 80 µM.

Regarding `Cc1ccc(-c2nc(NCc3cccnc3)c3ccccc3n2)cc1` [Pyridin-3-ylmethyl-(2-p-tolyl-quinazolin-4-yl)-amine], the 50% inhibitory concentration (IC50) was greater than 80 µM.

Molecule `Clc1cccc(Cl)c1Cn1cnc(NCc2ccco2)c2ncnc1-2` [SMR000036870] registered a concentration for half-maximal inhibition (IC50) greater than 80 µM.

Take `c1ccc(-c2nc(NCCCN3CCOCC3)c3ccccc3n2)cc1` [SMR000071192]: the 50% inhibitory concentration (IC50) was greater than 80 µM.

`Cc1ccc(-c2nc(NCCN3CCOCC3)c3ccccc3n2)cc1` [SMR000108805] gave an IC50 greater than 80 µM.

`CC(C)Oc1ccc(-c2nc(NCC3CCCO3)c3ccccc3n2)cc1` (configuration not stated) [SMR000433802] gave an IC50 greater than 80 µM.

`c1ccc(-c2cc(NCCN3CCCCC3)c3ccccc3n2)cc1` [SMR000567889] came in with a half-maximal inhibitory concentration (IC50) greater than 80 µM.
